Experimental data taken from article PMC4912613, “A broad analysis of resistance development in the malaria parasite” (Nature Communications, 2016).
Read-outs that look alike come from different tables or passages of the source.

What was measured:
Assay type in all cases: cell-based, Plasmodium falciparum
[1] = system: CYTb-G131S (cytb G131S, parent Dd2); test: Cross-resistance EC50 assay, CYTb-G131S; settings: Plasmodium falciparum; SYBR green 72 hour assay; synchronized parasites; 384-well format; strain CYTb:G131S (Dd2 parent)
Source text: (§1) To evaluate potential overlapping activity against known antimalarial drug targets, we performed dose-response studies with each compound against our assembled set of drug-resistant lines and their corresponding parents, in an asexual blood stage proliferation assay (Table 1). Comparisons were made to the drug-sensitive strain 3D7 when a parent was unavailable (TM90C2A, W2 and Dd2). As laboratories conducted EC50 assays with different strains and protocols, all comparisons were made between assays from the same laboratory and under the same assay conditions. Compounds displaying >5-fold EC50 shifts relative to the parent or sensitive strain were flagged as having potentially non-novel targets. Average fold shifts per strain ranged from 0.82 to 2.34, with a median of 1.23 indicating there was not common resistance to any one resistant clone. No resistance patterns were observed when classifying the compounds based on chemical structure, but this was not surprising given the diversity of compounds chosen. On the other hand, given that these confirmed compounds were derived from larger unconfirmed hit lists to which some filtration criteria may have been applied (for example, elimination of obvious dihydrofolate reductase inhibitors[32]), some[10][11][12][13] pre-existing bias may exist in the set. […]
(§2) Alternatively, a SYBR Green-based proliferation approach was used for the 72-h assay, as previously described. Briefly, a culture of either synchronized or asynchronous parasitized RBCs (0.3% parasitemia and 4% haematocrit) in screening medium (identical to supplemented medium above except no serum was added) was exposed to serial drug dilutions. Plates were incubated at 37 °C and gassed with 93% N2, 4% CO2 and 3% O2 for 72 h. Following incubation, 10 × SYBR Green I (Invitrogen; supplied in 10,000 × concentration) in lysis buffer ([…], 5 mM EDTA, 0.16% Saponin wt per vol and 1.6% Triton X vol per vol) was added to the wells and the plates were incubated overnight at room temperature before plate reading. EC50 assays were repeated three times, taking the average EC50 value from each assay set, and removing any outliers using a single iteration of Grubbs' test, eliminating values with z-scores above the critical z-value (α=0.05). The raw EC50 values for synchronized parasites assayed in a 384-well format are listed in Supplementary Data 4. The raw EC50 values for asynchronous parasites assayed in a 96 or 1536-well format are listed in Supplementary Data 5.
(§3) EC50 values for each strain were compared with those of the corresponding parent strain to determine fold-shift changes and identify resistance. To minimize the cause variance between assays, all comparisons were conducted between strains assayed under identical conditions. A one-way ANOVA followed by a Dunnet's post-test was conducted in GraphPad Prism to identify significant changes between the parent and resistant strain.

[2] = system: P. falciparum 3D7, Dd2, Dd2Δexo; test: In vitro evolution of compound-resistant lines (selection); settings: for # of Resistant Strains Generated: resistant cultures out of three independent cultures; for EC50 fold shifts observed: selected parasites vs selection parent
Source text: While we found an overall lack of pre-existing resistance, analysing the onset of resistance was critical, as compounds resulting in rapid resistance are not ideal for clinical development. We therefore sought to create drug-resistant parasites using a variety of different selection methods. We implemented either a high-dose method or a ramp-up/pulse method for our in vitro selections. Two of the 50 compounds—MMV028895 and MMV665824—were removed from the selection study during experimentation. […] Out of the remaining 48 compounds, resistant parasites were obtained for 23 (Supplementary Data 1). As each selection was performed in triplicate with three independent cultures, we succeeded in generating a total of 66 resistant cultures. Parasites resistant to MMV026596 were not obtained despite 100 days of selection, but the cultures acquired hypersensitivity to mefloquine with a 10-fold reduction in EC50 compared with its parental line, 3D7. For the remaining 24 compounds, acquisition of resistant parasites was unsuccessful despite numerous attempts over an extensive period of time.
Based on the compound speed of action and lab specialty, selections were conducted using a high-pressure intermittent selection method, a step-wise selection method, or a constant selection method. For high-pressure selections, ∼1–2 × 10^9 parasites were treated at a concentration of 3–10 × EC50 until parasites could not be seen by microscopy (4–10 days). Following treatment, compound pressure was removed and cultures were allowed to recover. Once healthy parasites were seen and parasitemia reached ∼2%, compound pressure was reinstated. For step-wise selections, ∼1 × 10^8 parasites were treated at a starting concentration resulting in a reduced growth rate of 50%. Cultures were examined daily by microscopy, increasing compound concentration in increments of 5–10% as needed to maintain a 50% reduced growth rate. Selections were carried out until cultures achieved a reproducible EC50 fold shift of >3 × . Finally, constant selections were conducted in a similar manner to the high-pressure intermittent method with the exception that compound pressure was never removed. Following successful selection, cultures were cloned out using a limiting dilution method as previously described. Selections were terminated after 200 days if resistance could not be obtained.

[3] = system: ATQ-R4 (cytb M133I and L144S, parent 3D7); test: Cross-resistance EC50 assay, ATQ-R4; settings: for EC50: Plasmodium falciparum, 3D7, SYBR green 72 hour assay, asynchronized parasites, 96-well or 1536-well format, ATQ-R4
Source text: as §1, §2, §3

[4] = system: Stage 5 gametocytes from P. falciparum NF54; test: Late-stage (stage V) gametocyte survival assay, MitoTracker; settings: for EC50: Plasmodium falciparum, read-out: Stage 5 Gametocyte EC50; for EC50 fold shift compared to asexual stage: Stage 5 Gametocyte EC50: gametocyte EC50 / 3D7 EC50
Method: The second assay was a late-stage (stage V) gametocyte survival assay, which predicts transmission-blocking activity. […] Positive and negative control compounds included puromycin (0.61±0.11 μM) and atovaquone (> 12.50 μM), respectively.
To test sexual-stage activity, compounds were tested against late-stage gametocytes using a MitoTracker fluorescent-based assay. Specifically, synchronized stage V gametocytes were incubated with compound for 72 h. MitoTracker Red CMXRos (Life Technologies) was added to each well (final concentration: 500 nM) together with saponin to lyse the RBCs. Each plate was then imaged with an Operetta High Content Imaging System (Perkin Elmer) for fluorescence (590–640 nm). Varying levels of compound concentration were used (1.25 μM or 12.5 μM) due to the stock concentration supplied.
The gametocytocidal activity was measured using high-content image analysis software (Harmony, Perkin Elmer). The readout was based on number of metabolically active gametocytes per well.

| Compound | EC50 [1] [nM] | Time Length to Obtain Mutants ([2]; in vitro selection) | # of Resistant Strains Generated [2] | EC50 fold shifts observed [2] | EC50 [3] [µM] | EC50 fold-shift, ATQ-R4 vs parent ([3]; resistance, parent 3D7) [×] | EC50 ([4]; P. falciparum NF54, 72 h) [µM] | EC50 fold shift compared to asexual stage: Stage 5 Gametocyte EC50 [4] | EC50 ([4]; NF54, 72 h) [µM] | acquisition of resistant parasites ([2]; in vitro selection) |
| --- | --- | --- | --- | --- | --- | --- | --- | --- | --- | --- |
| COc1ccccc1CNC(=O)CCn1c(=O)[nH]c2ccsc2c1=O [MMV019066] | 149 | SHORT (0-50 days) | 3/3 | >15x | 0.057 | 16 | > 1.25 | > 0.7 |  |  |
| Cl.c1ccc2c(NCCCCCCNc3c4c(nc5ccccc35)CCCC4)c3c(nc2c1)CCCC3 [MMV019555] | 237 | LONG (> 125 days) | 0/3 | no shift | 0.08 |  |  |  | 0.451 |  |
| COc1ccc(N2CCN(C(CNC(=O)C3CCCCC3)c3ccc4c(c3)OCO4)CC2)cc1 (centres unmarked) [MMV019662] | 583 | MODERATE (50-125 days) | 3/3 | 15x | 0.716 |  | 3.68 | 10.82 |  |  |
| COc1ccc(-c2nc(NC(=O)Cc3ccc4c(c3)OCCO4)sc2C)cc1 [MMV019719] | 261 | MODERATE (50-125 days) | 3/3 | 3x | 0.203 |  | 5.52 | 33.66 |  |  |
| Cc1ccc(Oc2ncccc2C(=O)Cc2cccc3cccnc23)c(C)c1 [MMV020746] | 327 | SHORT (0-50 days) | 3/3 | 6-19x | 1.97 |  | 3.79 | 49.87 |  |  |
| COc1cc(-c2nc(-c3ccccc3)c(-c3ccccc3)[nH]2)cc(OC)c1O [MMV020750] | 872 | LONG (> 125 days) | 0/3 | no shift | 0.912 |  | > 1.25 | > 3.6 |  |  |
| CCCCCCCN(Cc1ccc(OC(C)(C)C(=O)OCC)cc1)C(=O)Nc1ccc(Cl)cc1OCC [MMV021735] | 498 | LONG (> 125 days) | 0/3 | no shift | 0.056 |  | > 11.6 | > 32 |  |  |
| CN(C)Cc1ccc(-c2cc3c(-c4ccc(CN(C)C)cc4)ccnc3[nH]2)cc1.O=C(O)C(F)(F)F [MMV022224] | 343 | LONG (> 125 days) | 0/3 | no shift | 0.372 |  | 2.33 |  |  |  |
| Nc1ncc(-c2cn[nH]c2)cc1-c1nc2ccc(F)cc2[nH]1 [MMV023367] | 710 | LONG (> 125 days) | 3/3 | 3x | 1.67 |  | 6.68 | 22.12 |  |  |
| CN(C)S(=O)(=O)c1cc(-c2ccc3nccc(-c4cccc(S(N)(=O)=O)c4)c3c2)cnc1N [MMV024038] | 249 | SHORT (0-50 days) | 0/3 | no shift | 1.16 |  | 0.317 | 1.39 |  |  |
| Cc1ccc(S(=O)(=O)n2cc(-c3ccnc(N)c3)c3cc(Br)cnc32)cc1 [MMV024114] | 1680 | LONG (> 125 days) | 3/3 | 2x | 1.99 |  | > 12.5 | > 47 |  |  |
| CNCc1ccc2nc(-c3coc(Cc4cc(Cl)ccc4OCC(C)C)n3)[nH]c2c1.Cl.Cl [MMV026596] | 443 | LONG (> 125 days) | 0/3 | no shift | 0.303 |  | 6.35 | 18.35 |  | not obtained |
| COc1cc(-c2nc(-c3ccccc3)c(-c3ccccc3)[nH]2)ccc1OCCN(C)C [MMV027496] | 322 | LONG (> 125 days) | 0/3 | no shift | 0.305 |  | > 12.5 | > 112 |  |  |
| Cc1nc2ccc3ccc(CNc4ccc(C(=O)CC(CCC(=O)O)C(=O)O)cc4)cc3c2c(=O)[nH]1.Cl (centres unmarked) [MMV027634] | 52 | SHORT (0-50 days) | 3/3 | >15x | 0.194 |  | > 12.5 | > 543 |  |  |
| CC(C)c1cccc(C(NC(=O)C2Cc3ccccc3CN2C(=O)c2cccc(N3CCOCC3)c2)C2CCCC2)c1 (centres unmarked) [MMV028038] | 461 | MODERATE (50-125 days) | 3/3 | 5-30x | 1.01 |  | 1.18 | 2.19 |  |  |
| O=C(NCC(CCCN1CCC(c2c[nH]c3ccccc23)CC1)c1ccccc1)Nc1ccc(Cl)c(Cl)c1 (centres unmarked) [MMV029272] | 920 | LONG (> 125 days) | 3/3 | 6-9x | 9.56 |  | 2.23 | 16.40 |  |  |
| CC(C)(C)OC(=O)N1CCN(c2ccccc2NC(=O)c2cccc(C(F)(F)F)c2Oc2ccc(F)cc2)CC1 [MMV030666] | 389 | LONG (> 125 days) | 0/3 | no shift | 0.448 |  | 0.993 | 2.04 |  |  |
